Reference: patent US5455356A, “Fungicidal 1-aryl-1-[α-(triazolyl)alkyl]-1-silacycloalkanes and their preparation methods” (priority 1993, dated 1995)
Read-outs that look alike come from different tables or passages of the source.

How the values were obtained:
Type in all cases: cell-based
[1] = tested on: Phytophthora capsisi; test: In vitro mycelial/spore growth on potato-sucrose-agar, percent disease control (PC); conditions: read-out: % controlled, PC
Protocol: (§1) The compounds of this invention were dissolved respectively in acetone in an amount equal to 10% of the final volume and then in purified water at the concentration of 100 ppm and 50 ppm.
(§2) Each of the solution was mixed with potato-sucrose-agar medium in 6" petri dish and one of the fungi was spotted at the center of the dish. The dish was incubated in growth room for several days. The percent disease control was derived from the radii of spore growth. The screening tests in vitro condition are well-known to those skilled in the art.
(§3) The following fungi were used for the screening.
2) Phy. ca.; Phytophthora capsisi

[2] = tested on: Pyricalaria oryzae; test: In vitro mycelial/spore growth on potato-sucrose-agar, percent disease control (PO); conditions: read-out: % controlled, PO
Protocol: as §1, §2, §3
6) Py. or.; Pyricalaria oryzae

[3] = tested on: Rhizoctonia solani; test: In vitro mycelial/spore growth on potato-sucrose-agar, percent disease control (RS, first column); conditions: read-out: % controlled, RS
Protocol: as §1, §2, §3
7) Rhi. so.; Rhizoctonia solani

[4] = tested on: Fusarium moniliforme; test: In vitro mycelial/spore growth on potato-sucrose-agar, percent disease control (FM); conditions: Fusarium verticillioides, read-out: % controlled, FM
Protocol: as §1, §2, §3
8) Fu. mo.; Fusarium moniliforme

[5] = tested on: Botryosphaeri; test: In vitro mycelial/spore growth on potato-sucrose-agar, percent disease control (BD); conditions: read-out: % controlled, BD
Protocol: as §1, §2, §3
4) Bo. do (Ma); Botryosphaeri

[6] = tested on: Rhizopus sp.; test: In vitro mycelial/spore growth on potato-sucrose-agar, percent disease control (RS, second column); conditions: read-out: % controlled, RS
Protocol: as §1, §2, §3
9) Rhi. sp.; Rhizopus sp.

[7] = tested on: Botritis cinerea; test: In vitro mycelial/spore growth on potato-sucrose-agar, percent disease control (BC); conditions: read-out: % controlled, BC
Protocol: as §1, §2, §3
10) Bo. ci.; Botritis cinerea

[8] = tested on: GC; test: In vitro mycelial/spore growth on potato-sucrose-agar, percent disease control (GC); conditions: read-out: % controlled, GC; for inhibition of growth at 50 ppm: GC
Protocol: as §1, §2, §3

SMILES	inhibition of growth at 50 ppm [1] [%]	inhibition of growth at 200 ppm [1] [%]	inhibition of growth at 50 ppm [2] [%]	inhibition of growth at 200 ppm [2] [%]	inhibition of growth at 50 ppm [3] [%]	inhibition of growth at 200 ppm [3] [%]	inhibition of growth at 50 ppm ([4]; 50 ppm, Fusarium moniliforme) [%]	inhibition of growth at 200 ppm ([4]; Fusarium moniliforme) [%]	inhibition of growth at 50 ppm [5] [%]	inhibition of growth at 200 ppm [5] [%]	inhibition of growth at 50 ppm ([6]; 50 ppm, Rhizopus sp.) [%]	inhibition of growth at 200 ppm ([6]; Rhizopus) [%]	inhibition of growth at 50 ppm [7] [%]	inhibition of growth at 200 ppm [7] [%]	inhibition of growth at 50 ppm [8] [%]	inhibition of growth at 200 ppm [8] [%]	inhibition of growth at 50 ppm [4] [%]	inhibition of growth at 50 ppm ([6]; Rhizopus) [%]
CC(n1cncn1)[Si]1(c2ccc(Cl)cc2)CCCC1 (stereo not drawn) [1-(4-chlorophenyl)-1-[α-(1H-1,2,4-triazole-1-yl)ethyl]-1-silacyclopentane]	30	100	100	100	100	100	100	100	100	100	42	60	100	100	100	100	–	–
CCOc1ccc([Si]2(Cn3cncn3)CCCCC2)cc1 [1-(4-ethoxyphenyl)-1-(1H-1,2,4-triazole-1-yl)methyl-1-silacyclohexane]	65	87	100	100	94	100	73	99	79	100	54	85	74	94	100	100	–	–
CCOc1ccc([Si]2(Cn3cncn3)CCCC2)cc1 [1-(4-ethoxyphenyl)-1-(1H-1,2,4-triazole-1-yl)methyl-1-silacyclopentane]	40	100	100	100	72	100	68	79	82	89	66	77	70	74	100	100	–	–
CCOc1ccc([Si]2(C(C)n3cncn3)CCCCC2)cc1 (stereo not drawn) [1-(4-ethoxyphenyl)-1-[α-(1H-1,2,4-triazole-1-yl)ethyl]-1-silacyclohexane]	45	75	100	100	97	100	65	98	92	100	34	56	65	98	100	100	–	–
CCOc1ccc([Si]2(C(C)n3cncn3)CCCC2)cc1 (stereo not drawn) [1-(4-ethoxyphenyl)-1-[α-(1H-1,2,4-triazole-1-yl)ethyl]-1-silacyclopentane]	43	91	100	100	100	100	93	100	70	95	63	90	79	94	100	100	–	–
Fc1ccc([Si]2(Cn3cncn3)CCCCC2)cc1 [1-(4-fluorophenyl)-1-(1H-1,2,4-triazole-1-yl)methyl-1-silacyclohexane]	47	74	96	100	55	59	100	100	100	100	75	93	100	100	100	100	–	–
Fc1ccc([Si]2(Cn3cncn3)CCCC2)cc1 [1-(4-fluorophenyl)-1-(1H-1,2,4-triazole-1-yl)methyl-1-silacyclopentane]	80	100	100	100	95	100	–	100	100	100	–	83	100	100	100	100	10	75
CC(n1cncn1)[Si]1(c2ccc(F)cc2)CCCCC1 (stereo not drawn) [1-(4-fluorophenyl)-1-[α-(1H-1,2,4-triazole-1-yl)ethyl]-1-silacyclohexane]	77	85	100	100	100	100	100	100	100	100	76	86	100	100	100	100	–	–
CC(n1cncn1)[Si]1(c2ccc(F)cc2)CCCC1 (stereo not drawn) [1-(4-fluorophenyl)-1-[α-(1H-1,2,4-triazole-1-yl)ethyl]-1-silacyclopentane]	45	100	100	100	100	100	94	100	100	100	59	75	100	100	100	100	–	–
COc1ccc([Si]2(C(C)n3cncn3)CCCCC2)cc1 (stereo not drawn) [1-(4-methoxoyphenyl)-1-[α-(1H-1,2,4-triazole-1-yl)ethyl]-1-silacyclohexane]	55	85	100	100	93	100	94	98	92	100	49	60	64	100	100	100	–	–
